Read-outs that look alike come from different tables or passages of the source.
Key:
Assay type in all cases: in vivo
[1] = test system: Diabrotica balteata (Corn root worm); assay: Diabrotica balteata (Corn root worm), maize sprouts sprayed, L2 larvae mortality; settings: 96 h, application rate of 200 ppm, L2 larvae on maize sprouts, assessed 4 days after infestation, read-out: control (mortality)
Method: Diabrotica balteata (Corn root worm):
Maize sprouts placed onto an agar layer in 24-well microtiter plates were treated with aqueous test solutions prepared from 10,000 ppm DMSO stock solutions by spraying. After drying, the plates were infested with L2 larvae (6 to 10 per well). The samples were assessed for mortality 4 days after infestation.

[2] = test system: Euschistus heros (Neotropical Brown Stink Bug); assay: Euschistus heros (Neotropical Brown Stink Bug): Feeding/contact activity; settings: 120 h, read-out: control (mortality)
Method: Euschistus heros (Neotropical Brown Stink Bug): Feeding/contact activity Soybean leaves on agar in 24-well microtiter plates were sprayed with aqueous test solutions prepared from 10,000 ppm DMSO stock solutions. After drying the leaves were infested with N2 nymphs. The samples were assessed for mortality 5 days after infestation.

[3] = test system: Myzus persicae (Green peach aphid); assay: Myzus persicae (Green peach aphid): Feeding/Contact activity; settings: foliar, 144 h, read-out: control (mortality)
Method: Myzus persicae (Green peach aphid): Feeding/Contact activity Sunflower leaf discs were placed onto agar in a 24-well microtiter plate and sprayed with aqueous test solutions prepared from 10,000 ppm DMSO stock solutions. After drying, the leaf discs were infested with an aphid population of mixed ages. The samples were assessed for mortality 6 days after infestation.

[4] = test system: Plutella xylostella (Diamond back moth); assay: Plutella xylostella (Diamond back moth): Feeding/contact activity; settings: 120 h, application rate of 200 ppm, L2 larvae on artificial diet, assessed 5 days after infestation, read-out: control (mortality)
Method: Plutella xylostella (Diamond back moth): Feeding/contact activity
24-well microtiter plates with artificial diet were treated with aqueous test solutions prepared from 10,000 ppm DMSO stock solutions by pipetting. After drying, the plates were infested with L2 larvae (10 to 15 per well). The samples were assessed for mortality 5 days after infestation.

[5] = test system: Spodoptera littoralis (Egyptian cotton leaf worm); assay: Spodoptera littoralis (Egyptian cotton leaf worm): Feeding/contact activity; settings: foliar, 72 h, read-out: control (mortality)
Method: Spodoptera littoralis (Egyptian cotton leaf worm): Feeding/contact activity Cotton leaf discs were placed onto agar in 24-well microtiter plates and sprayed with aqueous test solutions prepared from 10,000 ppm DMSO stock solutions. After drying the leaf discs were infested with five L1 larvae. The samples were assessed for mortality 3 days after infestation.

[6] = test system: Tetranychus urticae (Two-spotted spider mite); assay: Tetranychus urticae (Two-spotted spider mite): Feeding/contact activity; settings: foliar, 192 h, read-out: control (mortality)
Method: Tetranychus urticae (Two-spotted spider mite): Feeding/contact activity
Bean leaf discs on agar in 24-well microtiter plates were sprayed with aqueous test solutions prepared from 10,000 ppm DMSO stock solutions. After drying the leaf discs were infested with a mite population of mixed ages. The samples were assessed for mortality on mixed population (mobile stages) 8 days after infestation.

[7] = application rate of 200 ppm, N2 nymphs on soybean leaves, assessed 5 days after infestation
[8] = application rate of 200 ppm, aphid population of mixed ages on sunflower leaf discs, assessed 6 days after infestation
[9] = application rate of 200 ppm, L1 larvae on cotton leaf discs, assessed 3 days after infestation
[10] = application rate of 200 ppm, mite population of mixed ages (mobile stages) on bean leaf discs, assessed 8 days after infestation

Measured: mortality at 200 ppm

Cn1c(-n2cc(-c3ccc(Cl)c(C(=O)NC4(C#N)CC4)c3)cn2)ccc1C(F)(C(F)(F)F)C(F)(F)F [Compound 1, 2-chloro-N-(1-cyanocyclopropyl)-5-[1-[1-methyl-5-[1,2,2,2-tetrafluoro-1-(trifluoromethyl)ethyl]pyrrol-2-yl]pyrazol-4-yl]benzamide]
≥ 80%: [1] | [2]; [7] | [3]; [8] | [4] | [5]; [9] | [6]; [10]

Cn1c(C(F)(C(F)(F)F)C(F)(F)F)cc(Br)c1-n1cc(-c2ccc(Cl)c(C(=O)NC3CC3)c2)cn1 [Compound 3, 5-[1-[3-bromo-1-methyl-5-[1,2,2,2-tetrafluoro-1-(trifluoromethyl)ethyl]pyrrol-2-yl]pyrazol-4-yl]-2-chloro-N-cyclopropyl-benzamide]
≥ 80%: [1] | [2]; [7] | [4] | [5]; [9] | [6]; [10]

CN(C(=O)c1cc(-c2cnn(-c3c(Br)cc(C(F)(C(F)(F)F)C(F)(F)F)n3C)c2)ccc1Cl)C1CC1 [Compound 4, 5-[1-[3-bromo-1-methyl-5-[1,2,2,2-tetrafluoro-1-(trifluoromethyl)ethyl]pyrrol-2-yl]pyrazol-4-yl]-2-chloro-N-cyclopropyl-N-methyl-benzamide]
≥ 80%: [1] | [2]; [7] | [3]; [8] | [4] | [5]; [9] | [6]; [10]

Cn1c(-c2cc(-c3ccc(Cl)c(C(=O)NC4(C#N)CC4)c3)on2)ccc1C(F)(C(F)(F)F)C(F)(F)F [Compound 5, 2-chloro-N-(1-cyanocyclopropyl)-5-[3-[1-methyl-5-[1,2,2,2-tetrafluoro-1-(trifluoromethyl)ethyl]pyrrol-2-yl]isoxazol-5-yl]benzamide]
≥ 80%: [1] | [2]; [7] | [4] | [5]; [9] | [6]; [10]

Cn1c(C(F)(C(F)(F)F)C(F)(F)F)cc([N+](=O)[O-])c1-n1cc(-c2ccc(Cl)c(C(=O)NC3(C#N)CC3)c2)cn1 [Compound 7, 2-chloro-N-(1-cyanocyclopropyl)-5-[1-[1-methyl-3-nitro-5-[1,2,2,2-tetrafluoro-1-(trifluoromethyl)ethyl]pyrrol-2-yl]pyrazol-4-yl]benzamide]
≥ 80%: [5]; [9]

N#CCn1c(C(F)(C(F)(F)F)C(F)(F)F)cc(Br)c1-n1cc(-c2ccc(Cl)c(C(=O)NC3(C#N)CC3)c2)cn1 [Compound 13, 5-[1-[3-bromo-1-(cyanomethyl)-5-[1,2,2,2-tetrafluoro-1-(trifluoromethyl)ethyl]pyrrol-2-yl]pyrazol-4-yl]-2-chloro-N-(1-cyanocyclopropyl)benzamide]
≥ 80%: [1] | [2]; [7] | [4] | [5]; [9] | [6]; [10]

Cn1c(Br)c(Br)c(Br)c1-n1cc(-c2ccc(Cl)c(C(=O)NC3(C#N)CC3)c2)cn1 [Compound 15, 2-chloro-N-(1-cyanocyclopropyl)-5-[1-(3,4,5-tribromo-1-methyl-pyrrol-2-yl)pyrazol-4-yl]benzamide]
≥ 80%: [1] | [4] | [5]; [9]

Cn1c(C(F)(F)C(F)(F)F)cc(Br)c1-n1cc(-c2ccc(Cl)c(C(=O)NC3(C#N)CC3)c2)cn1 [Compound 31, 5-[1-[3-bromo-1-methyl-5-(1,1,2,2,2-pentafluoroethyl)pyrrol-2-yl]pyrazol-4-yl]-2-chloro-N-(1-cyanocyclopropyl)benzamide]
≥ 80%: [1] | [2]; [7] | [3]; [8] | [6]; [10]

Cn1c(SC(F)(F)F)cc(Cl)c1-n1cc(-c2ccc(Cl)c(C(=O)NC3(C#N)CC3)c2)cn1 [Compound 32, 2-chloro-5-[1-[3-chloro-1-methyl-5-(trifluoromethylsulfanyl)pyrrol-2-yl]pyrazol-4-yl]-N-(1-cyanocyclopropyl)benzamide]
≥ 80%: [1] | [2]; [7] | [3]; [8] | [5]; [9] | [6]; [10]

CC(=O)N(C(=O)c1cc(-c2cnn(-c3ccc(C(F)(C(F)(F)F)C(F)(F)F)n3C3CC3)c2)ccc1Cl)C(C)(C)C#N [Compound 35, N-acetyl-2-chloro-N-(1-cyano-1-methyl-ethyl)-5-[1-[1-cyclopropyl-5-[1,2,2,2-tetrafluoro-1-(trifluoromethyl)ethyl]pyrrol-2-yl]pyrazol-4-yl]benzamide]
≥ 80%: [2]; [7] | [3]; [8] | [5]; [9] | [6]; [10]

CC(=O)N(C(=O)c1cc(-c2cnn(-c3ccc(C(F)(C(F)(F)F)C(F)(F)F)n3C3CC3)c2)ccc1Cl)C1(C#N)CC1 [Compound 36, N-acetyl-2-chloro-N-(1-cyanocyclopropyl)-5-[1-[1-cyclopropyl-5-[1,2,2,2-tetrafluoro-1-(trifluoromethyl)ethyl]pyrrol-2-yl]pyrazol-4-yl]benzamide]
≥ 80%: [2]; [7] | [3]; [8] | [4] | [5]; [9] | [6]; [10]

CC(C)(C#N)NC(=O)c1cc(-c2cnn(-c3ccc(C(F)(C(F)(F)F)C(F)(F)F)n3C3CC3)c2)ccc1Cl [Compound 37, 2-chloro-N-(1-cyano-1-methyl-ethyl)-5-[1-[1-cyclopropyl-5-[1,2,2,2-tetrafluoro-1-(trifluoromethyl)ethyl]pyrrol-2-yl]pyrazol-4-yl]benzamide]
≥ 80%: [2]; [7] | [3]; [8] | [4] | [5]; [9] | [6]; [10]

CN(C(=O)c1cc(-c2cnn(-c3ccc(C(F)(C(F)(F)F)C(F)(F)F)n3C3CC3)c2)ccc1Cl)C1(C#N)CC1 [Compound 38, 2-chloro-N-(1-cyanocyclopropyl)-5-[1-[1-cyclopropyl-5-[1,2,2,2-tetrafluoro-1-(trifluoromethyl)ethyl]pyrrol-2-yl]pyrazol-4-yl]-N-methyl-benzamide]
≥ 80%: [2]; [7] | [3]; [8] | [4] | [5]; [9] | [6]; [10]

COC(=O)N(C(=O)c1cc(-c2cnn(-c3ccc(C(F)(C(F)(F)F)C(F)(F)F)n3C3CC3)c2)ccc1Cl)C1(C#N)CC1 [Compound 39, methyl N-[2-chloro-5-[1-[1-cyclopropyl-5-[1,2,2,2-tetrafluoro-1-(trifluoromethyl)ethyl]pyrrol-2-yl]pyrazol-4-yl]benzoyl]-N-(1-cyanocyclopropyl)carbamate]
≥ 80%: [2]; in Glycine max | [3] | [5] | [6]

N#CC1(NC(=O)c2cc(-c3cnn(-c4ccc(C(F)(C(F)(F)F)C(F)(F)F)n4C4CC4)c3)ccc2Cl)CC1 [Compound 40, 2-chloro-N-(1-cyanocyclopropyl)-5-[1-[1-cyclopropyl-5-[1,2,2,2-tetrafluoro-1-(trifluoromethyl)ethyl]pyrrol-2-yl]pyrazol-4-yl]benzamide]
≥ 80%: [2]; [7] | [4] | [5]; [9] | [6]; [10]

N#CC1(NC(=O)c2cc(-c3cnn(-c4c(Br)c(Br)c(SC(F)(F)F)n4C4CC4)c3)ccc2Cl)CC1 [Compound 41, 2-chloro-N-(1-cyanocyclopropyl)-5-[1-[3,4-dibromo-1-cyclopropyl-5-(trifluoromethylsulfanyl)pyrrol-2-yl]pyrazol-4-yl]benzamide]
≥ 80%: [1] | [2]; [7] | [4] | [5]; [9] | [6]; [10]

Source: patent US11459318B2, “Pesticidally active pyrrole derivatives” (Syngenta Participations AG, priority 2017, dated 2022)
